Read-outs that look alike come from different tables or passages of the source.
Experiments:
[1] = tested on: CYP3A4 enzyme; experiment: Liver injury simulation in 3D co-cultures with HepaRG: CYP3A4 enzyme activity and albumin production; conditions: hydrogels and NP-hydrogels, K-HSC or LX-2 with HepaRG 1:1
[2] = tested on: TGF-β1; experiment: K-HSC/HepaRG 1:1 in 4% hydrogel with TGF-β1 and inhibitor A, 18-day culture, liver fibrosis marker expression; assay type: cell-based, human; conditions: K-HSC/HepaRG 1:1, 4% hydrogel, 18 days
Protocol: Meanwhile, the K-HSC was encapsulated with the hepatic cell line HepaRG at a ratio of 1:1 in a 4% hydrogel and then 3D cultured, and the groups were divided into experimental groups to which TGF-β1, which is a fibrosis-inducing material, and inhibitor A thereof were added individually or simultaneously, and a control group to which TGF-β1 and inhibitor A were not added. The groups were cultured for 18 days, and then the cell network formation and expression differences of fibrosis markers in the liver analogs were confirmed.

[3] = tested on: primary human hepatic cells; experiment: K-HSC and primary human hepatic cells 1:1 in hydrogel or nanoparticle-hydrogel, TGF-β1 cycles, albumin; assay type: cell-based; conditions: 10 ng/mL TGF-β1, 3 cycles, 24-day culture, K-HSC with primary human hepatic cells
Protocol: The K-HSC prepared in Example 1 was encapsulated with primary human hepatic cells (PHHs, Corning, USA) at a ratio of 1:1 in 4.5% polyethylene glycol/hyaluronic acid/RGD hydrogel using photopolymerization as described in Example 4. The cells frozen with nitrogen were thawed using recovery media (ThermoFisher, USA) and centrifuged, and then the number of cells were measured, and the cells were encapsulated with the K-HSC in a hydrogel, and then cultured for one day in a primary human hepatocyte plating medium (ThermoFisher, USA) containing 10% bovine serum. The medium was converted to a dedicated serum-free medium for primary human hepatic cells (Corning, USA), after 5 days, TGF-β1 inducing fibrosis, was added for 24 hours at a concentration of 10 ng/mL, and then converted back to a serum-free medium to which the TGF-β1 was not added in the following day, 3 cycles were performed, and the appearance change of the hydrogel was observed after the 24-day culture, and albumin production ability and expression levels of fibrosis markers were measured by RT-PCR.

[4] = tested on: CYP3A4 enzyme

Molecule	CYP3A4 enzyme activity and function [1]	reactivity to TGF-β1 in expression of liver fibrosis markers [2]	albumin degrading ability in the presence of TGF-β1 compared to control groups [3]	CYP3A4 enzyme activity and function [4]
CN(Cc1cnc2nc(N)nc(N)c2n1)c1ccc(C(=O)N[C@@H](CCC(=O)O)C(=O)O)cc1 [MTX, methotrexate]	CYP3A4 enzyme activity and functional decrease were simulated			
transforming growth factor beta 1 [TGF-β1]		confirmed in all markers except smooth muscle actin alpha (α-SMA) and lysyl oxidase (LOX)	deterioration	CYP3A4 enzyme activity and functional decrease were simulated

Source: patent publication US20240400997A1, “TRANSFORMED HUMAN HEPATIC STELLATE CELL LINE AND USE THEREOF” (KOREA RESEARCH INSTITUTE OF BIOSCIENCE AND BIOTECHNOLOGY, priority 2020, published 2024)
